Data taken from patent US8217075B2, “2-amino-2-phenyl-alkanol derivatives, their preparation and pharmaceutical compositions containing them” (Oroxcell, priority 2008, dated 2012).

Assays:
[1] = tested on: abdominal pain by irritation and distension of the colon; details: rats, from 13.1 mg/kg and at doses of 26.2 mg/kg by subcutaneous route
[2] = tested on: formalin-induced short- and long-phase pain; details: rat, dose of 39.3 mg/kg by subcutaneous route

For `CC[C@@](COC(=O)c1cc(OC)c(OC)c(OC)c1)(c1ccccc1)N(C)C(=O)OCc1ccc(OC)cc1` [Example 4], the “activity in abdominal pain test” value [1] was “demonstrated activity” and the “short- and long-phase activity” value [2] was “demonstrated short- and long-phase activity”.
